This assay concerns Human neutrophils. The assay is described as follows: Effect of single inducers on neutrophil viability (Example 1). The class given is cell-based. To be noted: FIG. 2; for effect on neutrophil lifespan / viability: single inducer 8 h in 1640 medium, inducer removed, culture 24 h, apoptosis by flow cytometry; for concentration with the best effect on neutrophil lifespan: cytokine inducers tested at 0-100 ng/mL. As to the method:
Human neutrophils were incubated with different concentrations of single inducers in 1640 medium for 8 h. Different concentrations of single inducers included: • inducer 1 (IFNγ): 0, 10, 20, 30, 50, 100 ng/mL; • inducer 2 (GM-CSF): 0, 10, 20, 30, 50, 100 ng/mL; • inducer 3 (TNFα): 0, 10, 20, 30, 50, 100 ng/mL; • inducer 4 (duvalumab): 0.1, 0.5, 1, 2, 3, 5, 8, 10 μg/mL; • inducer 5 (avelumab): 0.1, 0.5, 1, 2, 3, 5, 8, 10 μg/mL; • inducer 6 (Q-VD-Oph): 1, 10, 20, 50, 60, 80, 100 μM; and • inducer 7 (Nec-1): 1, 10, 20, 50, 60, 80, 100 μM; and • conditions of culture were 37° C. and 5% CO2. The apoptosis of neutrophils was detected by flow cytometry after removing the inducer and continuing culture for 24 h.
In general terms: In flow cytometry, cells or beads pass a laser one at a time.

[1] abbreviates: PD-L1 inhibitors tested at 0.1-10 μg/mL.
[2] abbreviates: apoptosis inhibitors tested at 1-100 μM.

For avelumab [inducer 5], the “effect on neutrophil lifespan / viability” value is given as “increase neutrophil viability”. Moreover, the “concentration with the best effect on neutrophil viability” value (“concentration … on neutrophil viability” for short) under setting [1] is 2 µg/mL.

With `CN1C(=O)C(Cc2c[nH]c3ccccc23)NC1=S` (stereo not drawn) [inducer 7, Nec-1], the “effect on neutrophil lifespan / viability” value is “increase neutrophil viability”. The “concentration … on neutrophil viability” value under setting [2] is 50 µM.

As for `CC(C)[C@H](NC(=O)c1ccc2ccccc2n1)C(=O)N[C@@H](CC(=O)O)C(=O)COc1c(F)cccc1F` [inducer 6, Q-VD-Oph], the “effect on neutrophil lifespan / viability” value is “increase neutrophil viability”. Also, the “concentration … on neutrophil viability” value under setting [2] stood at 50 µM.

Take GM-CSF [inducer 2]: the “concentration with the best effect on neutrophil lifespan” value was 20 ng/mL and the “effect on neutrophil lifespan / viability” value is listed as “significantly prolong the lifespan of neutrophils”.

Turning to duvalumab [inducer 4], the “effect on neutrophil lifespan / viability” value was “increase neutrophil viability”. Besides, under setting [1], the “concentration … on neutrophil viability” value worked out at 2 µg/mL.

B1: IFNγ (protein, UniProt P01579 24-161, looked up)
Interferon gamma: QDPYVKEAENLKKYFNAGHSDVADNGTLFLGILKNWKEESDRKIMQSQIVSFYFKLFKNFKDDQSIQKSVETIKEDMNVKFFNSNKKKRDDFEKLTNYSVTDLNVQRKAIHELIQVMAELSPAAKTGKRKRSQMLFRG
notes: cytokine, single inducer
For B1, the “concentration with the best effect on neutrophil lifespan” value was found to be 20 ng/mL and the “effect on neutrophil lifespan / viability” value is “significantly prolong the lifespan of neutrophils”.

(Values after patent publication US20250152626A1, “CONSTRUCTION AND APPLICATION OF ENHANCED NEUTROPHIL DRUG” (China Pharmaceutical University, priority 2023, published 2025).)
